Measurements: US11834663B2, “Fibrotic treatment” (Monash University, priority 2015, dated 2023)

System: hearts of aged (18-22 month old) WT mice
Test: Reversal of age-induced cardiac fibrosis and inflammation in aged WT mice (histology, immunofluorescence, western blot)
Assay type: in vivo, mouse
Details: aged (~20 month old) WT mice, 4 weeks, FIG. 19
Experimental: There are 8 different sets of in vivo experiments in this study: • A) Phenotypic characterisation of the heart and blood vessels in global IRAP knockout mice and their WT controls treated for 4 weeks with Angiotensin (Ang) II (800 ng/kg/min; s.c.) where mouse hearts and blood vessels were compared to tissue obtained from young WT and IRAP^−/− mice treated with saline. • B) Prevention of Ang II-induced changes in the cardiovascular system following IRAP inhibitor treatment. In the prevention model, WT mice were treated with Ang II (800 ng/kg/min; s.c.)±the IRAP inhibitor (HFI-419; 500 ng/kg/min for 28 days) or HFI-vehicle (1 DMSO:3 HBC). • C) Phenotypic characterisation of the aged heart, kidney and blood vessels in the global IRAP knockout mice where aged WT and IRAP^−/− mouse hearts, kidneys and blood vessels were compared to tissue obtained from young WT and IRAP^−/− mice. • D) Reversal of the age-induced changes in the cardiovascular system following IRAP inhibitor treatment. In the reversal model, aged WT mice were treated with either saline, IRAP inhibitor (HFI-419 at 500 ng/kg/min; compound 1 at 500 ng/kg/min; compound 2 at 50 ng/kg/min) or HFI-vehicle (1 DMSO: 3 HBC) for 4 weeks. • E) Prevention of ischemic-reperfusion injury in isolated hearts taken from aged global IRAP knockout mice and aged IRAP inhibitor (HFI-419 at 500 ng/kg/min; s.c.) treated WT mice compared to age-matched vehicle-treated (1 DMSO:3 HBC; s.c.) WT controls. • F) Phenotypic characterization of cardiac function using echocardiography in the aged global IRAP knockout mice compared to aged and young WT mice. • G) Phenotypic characterization of liver steatosis in IRAP knockout mice in a high fat diet (HFD) model. • H) Reversal of the salt-induced fibrosis in the liver following IRAP inhibitor treatment.
All mice which underwent surgery were anaesthetized with Isoflurane (Isorrane) (5% induction and 2.5% maintenance) and an incision made in the midscapular region through which osmotic minipumps (Alzet model 2004, Alza Corp) were inserted for subcutaneous drug administration. The incision area was sutured with 6/0 DY silk (Dynek Pty Ltd) and antibiotic powder applied (Cicatrin, Pfizer) followed by intramuscular injection of the analgesic Cartrophen (0.1 ml of a 1.5 mg/ml stock solution; Biopharm Australia). Systolic blood pressure (SBP) was measured fortnightly using non-invasive tail-cuff plethysmography apparatus (MC4000 Blood Pressure Analysis System, Hatteras Instrument Inc) before drug treatment (week 0), at week 2 of treatment and end of treatment (week 4). At the end of drug treatment, body weight of mice was recorded. Mice were anaesthetized using Isoflurane inhalation and killed by cervical dislocation. Organs (heart, aorta, kidneys, brain, blood and tibia) were collected, with heart and aorta being dissected appropriately as described below. All organs were then snap frozen in liquid nitrogen, and stored at −80° C. if they were not used for vascular reactivity studies conducted on the day mice were killed.
To measure collagen deposition, frozen sections of heart, kidney or aorta (all 5 μm thickness) were air dried for 10 minutes and were brought through 3 times xylene (2 minutes each), and 3 times absolute alcohol washes before being rinsed in tap H2O for 30 seconds. Staining with an optimal concentration of picrosirius red (in this instance 0.05% picrosirius red diluted in saturated picric acid) was performed and left for an hour. Sections were then rinsed in water and differentiated in 0.01 M HCl for 2 minutes, followed by dehydration via 3 times absolute alcohol washes. Then, slides were brought through 3 times xylene washes before being cover slipped according to standard histological techniques using DPX as the mounting medium. […]

SMILES	age-induced collagen expression in the heart (picrosirius red) (compound 1 at 500 ng/kg/min)	age-induced collagen expression in the heart (picrosirius red) (compound 2 at 50 ng/kg/min)
CC(=O)C1=C(C)OC(N)=C(C#N)C1c1ccc(C(=O)O)cc1.N (centres unmarked) [Compound 1, 4-(3-acetyl-6-amino-5-cyano-2-methyl-4H-pyran-4-yl)benzoic acid]	reverse	–
N[C@H]1CCSSC[C@@H](C(=O)NCc2ccccc2CC(=O)O)NC(=O)C[C@H](Cc2ccc(O)cc2)NC1=O [Compound 2]	–	reverse
